Measurements from paper PMC9856199, “Intact Transition Epitope Mapping—Force Differences between Original and Unusual Residues (ITEM-FOUR)” (Biomolecules, 2023).
Peptide text beside a SMILES is read from it.

Tests used:
Type in all cases: binding
[1] = biological target: monoclonal anti-hcTn I antibody [MF4] (ab38210 from Abcam); assay: Isothermal titration calorimetry of immune complex formation in solution; conditions: for ∆H / ∆G: immune complex formation in solution; for ∆H: 298 K; for ∆G: calculated from KA (van´t Hoff equation); for T∆S: T = 298 K, calculated with Gibbs-Helmholtz equation
Description: The monoclonal anti-hcTn I antibody [MF4] (ab38210 from Abcam, Cambridge, United Kingdom) was stored in PBS (0.138 M NaCl; 0.0027 M KCl, pH 7.4 from Sigma-Aldrich, St. Louis, MO, US), pH 7.4, and was used as purchased. The hcTn I peptides 1, 2, 4, 6, 7, and 8 were dissolved in PBS and stock solutions with 0.32 to 0.93 mg/mL peptide concentrations were prepared.
Isothermal titration calorimetry measurements were performed with an Affinity ITC instrument (Waters|TA Instruments, New Castle, DE, USA) at T = 298 K equipped with a 190 µL sample cell and a matching reference cell, AccuShot for precise delivery of the titrant, and a Flex Spin for slow speed stirring (125 rpm), efficient mixing, and highest sensitivity. The anti-hcTn I antibody was placed in the sample cell at 1.95 µM (in PBS). The hcTn I peptides, each at 40 µM (in PBS), were automatically titrated to the antibody in 18–20 steps (2 µL per step). The time between titrations was 200 s to establish a baseline between each injection for accurate heat determination and modeling.
The integrated areas under each injection peak (heat over time) were plotted against the active species’ respective molar ratios ranging from 1:0.4 to 1:6.6. An independent binding model was chosen to fit all the data and directly determine the enthalpy (ΔH) and association constant (KA). Gibbs free energy (ΔG) is calculated from the KA using the van´t Hoff equation. The change in entropy term (ΔS) is calculated applying the Gibbs-Helmholtz equation.

[2] = biological target: monoclonal anti-hcTn I antibody [MF4] (ab38210 from Abcam); assay: ITEM-FOUR: nanoESI-MS gas-phase dissociation of antibody-peptide immune complexes; conditions: for KD m0g#: apparent gas-phase dissociation constant, unitless number; for KD m0g# / kD m0g#: mean charge state, extrapolated to no excess energy; for kD m0g#: apparent gas-phase dissociation rate constant; for ΔGm0g# / ΔHm0g# / TambΔSm0g#: apparent, gas-phase immune complex dissociation; for TambΔSm0g#: Tamb 298 K; for binder group by ITEM-FOUR: grouping by ΔHm0g# and binding behaviour in the gas phase; for Initial [%] (immune complex amount at the lowest applied ∆CV): normalized educt ion intensity at ∆CV 2 V; for Initial [%] (immune complex amount at the lowest applied ∆CV) / Final [%] (immune complex amount at the highest applied ∆CV): antibody:peptide 1:2.2, 200 mM ammonium acetate pH 6.7, averaged from all measurements; for Final [%] (immune complex amount at the highest applied ∆CV): normalized educt ion intensity at ∆CV 80 V; for Slope: slope of tangent along steep part of Boltzmann curve
Description: Starting materials and antibody-peptide complex-containing solutions were prepared as previously described. In brief, an aliquot of 25 µL (50 µg) of the monoclonal anti-hcTn I antibody [MF4] (ab38210 from Abcam, Cambridge, United Kingdom) was placed on a 10K centrifugal filter device (Merck Millipore, Carrigtwohill, Ireland) with 400 µL 200 mM ammonium acetate, pH 6.7. After centrifugation at 13,000 rpm for 7 min in an Eppendorf centrifuge (MiniSpin, Eppendorf, Hamburg, Germany), the flow through was discarded and the filter was filled-up with 450 µL 200 mM ammonium acetate, pH 6.7. This centrifugation/discarding/refilling step was repeated eight times. Afterwards, the filter was placed upside down in a new tube and centrifuged for 5 min at 4500 rpm. Approximately 50 µL of antibody solution were collected (solution 1). […] Synthesized hcTn I peptides (Table 1) were purchased as lyophilized powders (peptides and elephants, Hennigsdorf, Germany) and dissolved in 200 mM ammonium acetate, pH 6.7, to obtain peptide concentrations of ca. 2.0 mg/mL, each. The actual peptide concentrations of individual peptide solutions were determined using the Qubit^TM 2.0 Fluorometer assay. Afterwards, all peptide solutions were diluted 1:100 with 200 mM ammonium acetate, pH 6.7 (solution 2). To obtain immune-complex-containing mixtures, the antibody solution (solution 1) and the peptide solution (solution 2) were mixed to obtain final molar antibody-peptide ratios of 1:2.2 (solution 3). Typically, 4 µL of antibody solution were mixed with the appropriate volume (typically 1–2 µL) of the individual peptide solution. Solutions 3 were incubated at room temperature for at least 1 h.
For each ITEM-FOUR examination, 3 µL of the peptide, antibody, or immune complex-containing solution were loaded into nanoESI capillaries that were pulled and gold coated in house. NanoESI-MS measurements were performed with a Synapt G2-S mass spectrometer (Waters MS-Technologies, Manchester, United Kingdom) with the following settings for ITEM-FOUR measurements: capillary voltage, 1.8 kV; source temperature, 40 °C; source offset voltage, 110 V; sample cone voltage, 110 V; cone gas flow, 100 L/h; trap gas flow, 8.0 mL/min; transfer collision cell voltage, 2 V. Measurements were acquired in positive-ion resolution mode, applying a mass window of m/z 200–8000. This mass range was calibrated using 1 mg/mL sodium iodide dissolved in isopropanol/water (50:50, v/v). The quadrupole analyzer was used with the following settings: M1 = 4000, dwell time, and ramp time 25%; M2 = 5000, dwell time, and ramp time 25%; and M3 = 6000 to block transmission of lower molecular weight ions. The first collision cell (TRAP) was used to dissociate antibody-peptide complexes by increasing the collision cell voltage difference (∆CV) in a stepwise manner every 60 s. The collision cell voltage difference steps were: 2, 4, 6, 8, 12, 16, 20, 30, 40, 50, 60, 70, and 80 V. Measurements were repeated at least twice (up to seven times) per immune complex, generating a total of 32 measurement series. The mass spectrometry proteomics data have been deposited to the ProteomeXchange Consortium via the PRIDE [33] partner repository with the dataset identifier PXD038365.
MassLynx version 4.1 (Waters MS-Technologies) was used for data analysis as described previously. First, the scans of each ∆CV setting encompassing 60 s of recording were combined to generate an average mass spectrum for each ∆CV step. Next, the mass spectra were smoothened in 20 cycles with a window of 10 using the Savitzky-Golay algorithm. The ion intensities of all molecular species and their corresponding charge states (complex ions, complex-released peptides, and antibody fragments) were read after smoothing. A bell-shaped Gaussian curve of the intensities of each molecular species was calculated using Origin 2017 (32-bit) SR2 (OriginLab Corporation, Northampton, MA, USA). […]

[3] = system: anti-Histag antibody; assay: nanoESI-MS of peptide mixed with unrelated antibody (specificity control); conditions: binary mixture, 200 mM ammonium acetate pH 6.7
Description: Figure S15. Nano-ESI mass spectra of Troponin I peptide 7 (ENREVGDWPKNIDAL) upon incubation with anti-Histag […]
ion signal) and (b) with blocked transmission of low mass ions (< 4800 ) and collision cell voltage differences of 2V and (c) with blocked transmission of low mass ion (< 4800) and collision cell voltage differences of 80V. Charge states are given for […]
Antibody fragment ion signals are visible between m/z 1200 and 2300 in (c). Solvent: 200 mM ammonium acetate, pH 6.7.
(1 picture or pasted object on this page, not shown here)

[4] = ITC in PBS pH 7.4, 298 K, antibody 1.95 µM in cell, peptide 40 µM titrant, independent binding model, unitless number
[5] = ITC in PBS pH 7.4, 298 K, independent binding model, unitless number

| Compound | Kd [1, 4] | KA [1, 5] | ∆H ([1]; ITC) | ∆G ([1]; ITC) | T∆S ([1]; ITC) | KD m0g# [2] | kD m0g# [2] | ΔGm0g# [2] | ΔHm0g# [2] | TambΔSm0g# [2] | binder group by ITEM-FOUR [2] | Initial [%] (immune complex amount at the lowest applied ∆CV) [2] | Final [%] (immune complex amount at the highest applied ∆CV) [2] | Slope [2] | KD [1, 4] | binding in solution (in words) ([1]; ITC, PBS pH 7.4, 298 K) | binding to anti-hcTn I antibody (in words) ([2]; ITEM analysis of peptide-antibody mixture, molar ratio 2.2:1) | complex formation with anti-Histag antibody (in words) [3] |
| --- | --- | --- | --- | --- | --- | --- | --- | --- | --- | --- | --- | --- | --- | --- | --- | --- | --- | --- |
| CC[C@H](C)[C@H](NC(=O)[C@H](CC(N)=O)NC(=O)[C@H](CCCCN)NC(=O)[C@H](CCCNC(=N)N)NC(=O)[C@H](Cc1c[nH]c2ccccc12)NC(=O)CNC(=O)CNC(=O)[C@@H](NC(=O)[C@H](CCC(=O)O)NC(=O)[C@H](CCCNC(=N)N)NC(=O)[C@H](CC(N)=O)NC(=O)[C@@H](N)CCC(=O)O)C(C)C)C(=O)N[C@@H](CC(=O)O)C(=O)N[C@@H](C)C(=O)N[C@@H](CC(C)C)C(=O)O [Peptide 6] (H-ENREVGGWRKNIDAL-OH) | 411 nM | 2.43 × 10^6 Ø | -10.85 kcal/mol | -8.721 kcal/mol | -2.13 kcal/mol | 4.62 × 10^−12 Ø | 2.9e+12 s⁻¹ | 15.46 kcal/mol | -0.442 kcal/mol | -15.89 kcal/mol | very strong binders (Peptides 1, 2, and 6 are “very strong binders” (group I) as their ΔHm0g# values of the gas-phase dissociation reaction are above −2 kJ/mol) | 58.83% | 23.33% | −0.75 %/V | – | – | – | – |
| ENREVGDWPKNIDAL [Peptide 7] | – | n.b. | n.b. | n.b. | n.b. | – | – | – | – | – | weak and unorthodox binder | 15.37% | 5.90% | – | n.b. | did not bind in solution | bound by the paratope in an unorthodox fashion | no complex formation was detected |
| CC[C@H](C)[C@H](NC(=O)[C@H](CC(N)=O)NC(=O)[C@H](CCCCN)NC(=O)[C@H](CC(C)C)NC(=O)[C@H](Cc1c[nH]c2ccccc12)NC(=O)[C@H](CC(=O)O)NC(=O)CNC(=O)[C@@H](NC(=O)[C@H](CCC(=O)O)NC(=O)[C@H](CCCNC(=N)N)NC(=O)[C@H](CC(N)=O)NC(=O)[C@@H](N)CCC(=O)O)C(C)C)C(=O)N[C@@H](CC(=O)O)C(=O)N[C@@H](C)C(=O)N[C@@H](CC(C)C)C(=O)O [Peptide 4] (H-ENREVGDWLKNIDAL-OH) | 243 nM | 4.12 × 10^6 Ø | -12.45 kcal/mol | -9.027 kcal/mol | -3.425 kcal/mol | 4.77 × 10^−12 Ø | 7.37e+12 s⁻¹ | 15.44 kcal/mol | -0.538 kcal/mol | -15.97 kcal/mol | strong binders (“strong binders” (group II) with ΔHm0g# values below −2 kJ/mol) | 41.60% | 23.12% | −0.35 %/V | – | – | – | – |
